This is an account of results in US20230091960A1, “CULTURE MEDIUM FOR PRIMARY CELLS OF ESOPHAGEAL SQUAMOUS CARCINOMA, AND CULTIVATION METHOD THEREFOR” (PRECEDO PHARMACEUTICALS CO., LTD, priority 2020, published 2023).

Holding throughout (assay type): cell-based, human
Assay [1] has as its system primary cells of esophageal squamous carcinoma. The assay can be described thus: Effects of concentrations of the added factors or small molecule compounds on proliferation (Example 7). The settings on record: for proliferation promoting effect when added to No. 7 medium: 10 μM, 3 μM, 1 μM, 0.3 μM, 0.1 μM, control No. 7 medium; for concentration at which the cell proliferation effect is most significant: added to No. 7 medium lacking this factor. As to the method: According to the same process as in Example 1, endoscopic tissue Sample 65, Sample 66, Sample 67, Sample 68 and Sample 69 were isolated to obtain primary cells of esophageal squamous carcinoma, and the obtained primary cells of esophageal squamous carcinoma were cultured by using No. 7 medium of Example 1. The resultants were inoculated into 12-well plate at a living cell density of 1×10^4/cm^2 (45,000 cells per well), and then the plate was added with NIH-3T3 cells that have been irradiated by γ-ray (irradiation dose 35Gy) at a cell density of 2×10^4/cm^2, which were then fully mixed. After surface disinfection, the plate was placed in a 37° C., 5% CO2 incubator (Thermo Fisher) for culture. When the cells expended to cover 85% of the plate, the 12-well plate was taken out, rinsed with 200 μL 0.25% trypsin (Gibco) for 1 minute. The liquid was removed by sucking, and 500 μL 0.05% trypsin (Gibco) was added to each well again. The resultant was placed in a 37° C., 5% CO2 incubator to react for 10 minutes, and the digestion can be terminated until it can be observed under the microscope (EVOS […], Invitrogen) that the cells have been completely digested. After being centrifuged at 1500 rpm for 4 minutes, the supernatant was discarded, and 1 mL of basic culture medium was added for resuspension. The total number of cells was obtained by counting with a flow imaging counter (JIMBIO FIL, Jiangsu Jimbio Technology Co., Ltd.). The obtained cells were used for the following cultivation experiments. The digested cell suspension was diluted with the above Formulations 1-8 and No. 7 medium in Example 1 respectively, and were seeded into a 24-well plate with 20,000 cells and 500 μL volume per well. When using the medium of Formulation 1, five concentration gradients of N2 additives with the final concentration of 1:400, 1:200, 1:100, 1:50 and 1:25 were prepared, respectively, and the prepared N2 additives were added respectively to a 24-well plate inoculated with primary cells, with 500 μL per well; the medium of Formulation 1 was used as the control hole (BC). When using the medium of Formulation 2, five concentration gradients of non-essential amino acids with the final concentration of 400 μM, 200 μM, 100 μM, 50 μM, 25 μM were prepared, respectively, and the prepared non-essential amino acids were added respectively to a 24-well plate inoculated with primary cells, with 500 μL per well; the medium of Formulation 2 was used as the control hole (BC). When using the medium of Formulation 3, five concentration gradients of glutamine with the final concentration of 8 mM, 4 mM, 2 mM, 1 mM, 0.5 mM were prepared, respectively, and the prepared glutamine were added respectively to a 24-well plate inoculated with primary cells, with 500 μL per well; the medium of Formulation 3 was used as the control hole (BC). When using the medium of Formulation 4, five concentration gradients of insulin with the final concentration of 40 μg/mL, 20 μg/mL, 10 μg/mL, 5 μg/mL, 2.5 μg/mL were prepared, respectively, and the prepared insulin were added respectively to a 24-well plate inoculated with primary cells, with 500 μL per well; the medium of Formulation 4 was used as the control hole (BC). When using the medium of Formulation 5, five concentration gradients of insulin-like growth factor 1 (IGF1) with the final concentration of 40 ng/mL, 20 ng/mL, 10 ng/mL, 5 ng/mL, 2.5 ng/mL were prepared, respectively, and the prepared insulin-like growth factor 1 (IGF1) were added respectively to a 24-well plate inoculated with primary cells, with 500 μL per well; the medium of Formulation 5 was used as the control hole (BC). […]

For assay [2] the test system is unchanged. Briefly: Effect of a single factor added to the basic culture medium on proliferation (Example 2). The settings on record: Sample 57, 7th day; BM = DMEM/F12 + 10 μM Y27632 + 100 mg/mL Primocin; factor at its No. 7 medium concentration. As to the method:
To the basic culture mediums of Example 1 (DMEM/F12 medium+10 μM Y27632+100 mg/mL Primocin) were separatedly added 1:50 ratio of N2 additive, 20 μg/mL insulin, 7 μg/mL bovine pituitary extract, 2 mM glutamine, 400 μM non-essential amino acids, 0.4 μg/mL hydrocortisone, 5 ng/mL insulin-like growth factor 1, respectively, to prepare the culture mediums of this Example. According to the same process as in Example 1, endoscopic tissue Sample 57, Sample 58, Sample 59, Sample 60 and Sample 61 were isolated to obtain primary cells of esophageal squamous carcinoma, and the obtained primary cells of esophageal squamous carcinoma were cultured by using the respective culture mediums prepared in this Example, as well as BM medium and No. 7 medium (EM) of Example 1. The resultants were inoculated into 48-well plate at a living cell density of 1×10^4/cm^2 (10,000 cells per well), and then the plate was added with NIH-3T3 cells that have been irradiated by γ-ray (irradiation dose 35Gy) at a cell density of 2×10^4/cm^2, which were then fully mixed. After surface disinfection, the plate was placed in a 37° C., 5% CO2 incubator (Thermo Fisher) for culture. On the 7th day of culture, the 48-well plate was taken out, rinsed with 200 μL 0.25% trypsin (Gibco) for 1 minute. The liquid was removed by sucking, and 500 μL 0.05% trypsin (Gibco) was added to each well again. The resultant was placed in a 37° C., 5% CO2 incubator to react for 10 minutes, and the digestion can be terminated until it can be observed under the microscope (EVOS […], Invitrogen) that the cells have been completely digested. After being centrifuged at 1500 rpm for 4 minutes, the supernatant was discarded, and 1 mL of basic culture medium was added for resuspension. The total number of cells was obtained by counting with a flow imaging counter (JIMBIO FIL, Jiangsu Jimbio Technology Co., Ltd.). The effect of combination of two factors in the culture medium for primary cells of esophageal squamous carcinoma on the proliferation of primary cells of esophageal squamous carcinoma was evaluated. The results obtained from primary cells of esophageal squamous carcinoma isolated from endoscopic tissue Sample 57 are shown in FIG. 2.

The test system is the same in assay [3]. Briefly: Effect of adding other factors to EM medium on proliferation (Example 3). To be noted: Sample 62, 10 ng/ml factor added to No. 7 medium (EM), cultured for 7 days. As to the method:
To No. 7 mediums (EM) of Example 1 were separately added 10 ng/ml fibroblast growth factor 2 (FGF2), 10 ng/ml fibroblast growth factor 10 (FGF10), 10 ng/ml fibroblast growth factor 7 (FGF7) or the combination of 10 ng/ml FGF2, 10 ng/ml FGF10 and 10 ng/ml FGF7, respectively, to prepare the mediums of this Example.
According to the same process as in Example 1, endoscopic tissue Sample 62 and Sample 63 were isolated to obtain primary cells of esophageal squamous carcinoma, and the obtained primary cells of esophageal squamous carcinoma were cultured by using the respective culture mediums prepared in this Example, as well as No. 7 medium (EM) of Example 1. The resultants were inoculated into 48-well plate with at a cell density of 1×10^4/cm^2 (10,000 cells per well), and then the plate was added with NIH-3T3 cells that have been irradiated by γ-ray (irradiation dose 35Gy) at a cell density of 2×10^4/cm^2, which were then fully mixed. After surface disinfection, the plate was placed in a 37° C., 5% CO2 incubator (Thermo Fisher) for culture. On the 7th day of culture, the 48-well plate was taken out, rinsed with 200 μL 0.25% trypsin (Gibco) for 1 minute. The liquid was removed by sucking, and 500 μL 0.05% trypsin (Gibco) was added to each well again. The resultant was placed in a 37° C., 5% CO2 incubator to react for 10 minutes, and the digestion can be terminated until it can be observed under the microscope (EVOS M500, Invitrogen) that the cells have been completely digested. After being centrifuged at 1500 rpm for 4 minutes, the supernatant was discarded, and 1 mL of No. 7 medium (EM) was added for resuspension. The total number of cells was obtained by counting with a flow imaging counter (JIMBIO FIL, Jiangsu Jimbio Technology Co., Ltd.). The effect of adding other factors to the culture medium for primary cells of esophageal squamous carcinoma of the invention on the proliferation of primary cells of esophageal squamous carcinoma was evaluated. […]

On to `C[C@H](NC(=O)Cc1cc(F)cc(F)c1)C(=O)N[C@H](C(=O)OC(C)(C)C)c1ccccc1` [DAPT], for which, in assay [1], the “proliferation promoting effect when added to No. 7 medium” value is “do not show significant proliferation promoting effect”.

`CC(C)Oc1ccc(-c2cnc3c(-c4ccnc5ccccc45)cnn3c2)cc1` [DMH-1]: the “proliferation promoting effect when added to No. 7 medium” value in assay [1] is on record as “do not show significant proliferation promoting effect”.

Turning to `Cc1ccc2nc(NC(=O)CSc3nc4c(c(=O)n3-c3ccccc3)SCC4)sc2c1` [IWP2], in assay [1], the “proliferation promoting effect when added to No. 7 medium” value is “do not show significant proliferation promoting effect”.

On to `NC(=O)c1ccc(-c2nc(-c3ccc4c(c3)OCO4)c(-c3ccccn3)[nH]2)cc1` [SB431542], for which, in assay [1], the “proliferation promoting effect when added to No. 7 medium” value is given as “do not show significant proliferation promoting effect”.

Turning to “insulin-like growth factor 1: insulin-like growth factor 1 (IGF-1, Sino Biological)”, the “cell proliferation efficiency when one factor is added to the basic culture medium” value (“cell proliferation efficiency” for short) in assay [2] is on record as “better than that of the basic culture medium, but was not as good as that of the No. 7 medium (EM)”. In addition, the “concentration at which the cell proliferation effect is most significant” value in assay [1] (five concentration gradients) came to 5 ng/mL.

On to `Cc1c[nH]c(-c2cnc(NCCNc3ccc(C#N)cn3)nc2-c2ccc(Cl)cc2Cl)n1` [CHIR99021], for which the “proliferation promoting effect when added to No. 7 medium” value in assay [1] is on record as “do not show significant proliferation promoting effect”.

Turning to `NC(=O)CC[C@H](N)C(=O)O` [glutamine], the “cell proliferation efficiency” value in assay [2] is “better than that of the basic culture medium, but was not as good as that of the No. 7 medium (EM)”. Moreover, the “concentration at which the cell proliferation effect is most significant” value in assay [1] (tested 0.5-8 mM) is given as 2 mM.

In the case of `C[C@@H](N)[C@H]1CC[C@H](C(=O)Nc2ccncc2)CC1` [Y27632], the “concentration at which the cell proliferation effect is most significant” value in assay [1] (five concentration gradients) came to 0.01 mM.

On to `C[C@]12CCC(=O)C=C1CC[C@@H]1[C@@H]2[C@@H](O)C[C@@]2(C)[C@H]1CC[C@]2(O)C(=O)CO` [hydrocortisone], for which the “cell proliferation efficiency” value in assay [2] was “better than that of the basic culture medium, but was not as good as that of the No. 7 medium (EM)”. Further, the “concentration at which the cell proliferation effect is most significant” value in assay [1] (five concentration gradients) came out at 400 ng/mL.

Turning to `c1ccc2c(-c3cnn4cc(-c5ccc(N6CCNCC6)cc5)cnc34)ccnc2c1` [LDN193189], the “proliferation promoting effect when added to No. 7 medium” value in assay [1] was “do not show significant proliferation promoting effect”.

On to FGF2: fibroblast growth factor 2, for which, in assay [3], the “effect on proliferation as compared with EM medium (ratio of cell numbers)” value (from here on “effect … (ratio of cell numbers)”) is given as “no significant effect for promoting proliferation”.

With `Cc1cccc(-c2nn(C(=S)Nc3ccccc3)cc2-c2ccnc3ccccc23)n1` [A83-01], the “proliferation promoting effect when added to No. 7 medium” value in assay [1] is “do not show significant proliferation promoting effect”.

With insulin, the “cell proliferation efficiency” value in assay [2] is given as “better than that of the basic culture medium, but was not as good as that of the No. 7 medium (EM)”. In assay [1] (five concentration gradients), the “concentration at which the cell proliferation effect is most significant” value was found to be 20 ng/mL.

B1: FGF7: fibroblast growth factor 7 (protein, UniProt P21781 32-194, looked up)
Fibroblast growth factor 7: CNDMTPEQMATNVNCSSPERHTRSYDYMEGGDIRVRRLFCRTQWYLRIDKRGKVKGTQEMKNNYNIMEIRTVAVGIVAIKGVESEFYLAMNKEGKLYAKKECNEDCNFKELILENHYNTYASAKWTHNGGEMFVALNQKGIPVRGKKTKKEQKTAHFLPMAIT
Take B1: in assay [3], the “effect … (ratio of cell numbers)” value is “inhibited”.

B2: FGF10: fibroblast growth factor 10 (protein, UniProt O15520 38-208, looked up)
Fibroblast growth factor 10: QALGQDMVSPEATNSSSSSFSSPSSAGRHVRSYNHLQGDVRWRKLFSFTKYFLKIEKNGKVSGTKKENCPYSILEITSVEIGVVAVKAINSNYYLAMNKKGKLYGSKEFNNDCKLKERIEENGYNTYASFNWQHNGRQMYVALNGKGAPRRGQKTRRKNTSAHFLPMVVHS
Regarding B2, the “effect … (ratio of cell numbers)” value in assay [3] is “no significant effect for promoting proliferation”.
